# Experimental data as given in patent publication US6087361A, “Aryl-imidazolines and aryl-imidazoles useful as α-2 adrenergic agonists without cardiovascular side effects” (Allergan Sales, Inc., priority 1997, dated 2000).
# Biological target: I1 imidazoline receptor
# Assay: I1 imidazoline receptor binding assay, 3H-clonidine, bovine VLM membranes
# Details: 25° C., 50 min
# Experimental: Fresh bovine brain stems were obtained from a local slaughter house. After removal of pia-arachnoid, the medulla was isolated by dissecting the brain stem about 1 cm posterior and 1 cm caudal to the obex. The ventral quadrants of the medulla excluding the pyramids were used as the VLM. For each preparation, 30 to 40 VLM were used. Initial homogenization was performed in 20 volumes of 5 mM HEPES buffer (pH 7.4 at 4° C.) containing 250 mM sucrose, 50 uM Calpain I inhibitor (Boehginer Mannheim, Indianapolis, Ind.), 100 uM 1,10-phenanthroline (Sigma, St. Louis, Mo.) and 50 uM Pefabloc (Boehginer Mannheim, Indianapolis, Ind.), using Virtis homogenizer at setting 7 with three 10 second pulses, followed by three passes in a teflon-glass tissue homogenizer. The inhibitors were added to prevent degradation by proteases and peptidases. The homogenates were then centrifuged at 1000× g for 10 min and the resulting pellets were re-homogenized and centrifuged. Supernatants resulted from both runs were combined and centrifuged for 20 min at 48000× g. The pellets obtained were resuspended in a teflon-glass homogenizer in 50 mM Tris-HCl with 5 mM EDTA (pH 7.7 at 4° C.), centrifuged, and resuspended in 50 mM Tris-HCl with 25 mM NaCl, pH 7.7 at room temp. To remove endogenous ligands, the homogenate was incubated 30 min at room temp before it was centrifuged for 20 min at 48000× g. The pellets were then washed with 50 mM Tris-HCl buffer, (pH 7.4 at 4° C.) and loaded on top of 5 mM HEPES/0.85 M sucrose (pH 7.4 at 4° C.). Pellets obtained after centrifugation at 48000× g for 20 min were saved. The fatty connective tissue on the top layer was discarded. The partially purified VLM membrane pellets were then washed twice with 50 mM Tris-HCl, pH 7.7 at 4° C., flash frozen in dry ice/acetone slush, and stored at -100° C. until use. Receptor binding experiments were performed within days after the membrane preparation.
# I1 imidazoline receptor binding affinity was determined from radioligand binding of ^3 H-clonidine (NEN, Boston, Mass.) to bovine VLM membranes. Specific activity of ^3 H-clonidine was 43 Ci/mmol. Kd of ^3 H-clonidine binding to the I1 imidazoline receptor was determined by saturation experiments and Ki of other ligands studied were determined by competition experiments. The radioligand binding assay was performed in Teflon 96-wells with the Biomek-1000 robotics (Beckman Instruments, Fullerton, Calif.). Each well contained […] ^3 H-Clonidine and 0.3 to 0.5 mg of bovine VLM protein in 5 mM HEPES buffer containing 0.5 mM EGTA and 0.5 mM MgCl2, pH 7.4 (0.1 mM ascorbic acid was added just before the protein). After 50 min of incubation at 25° C., the reaction was terminated by rapid filtration over Whatman GF/B filters treated with 0.1% polyethyleneimine and washed with 12 ml ice cold 50 mM Tris-HCl, pH 7.4 at 4° C. in a Brandel Harvester (Brandel, Gaithersburg, Md.). Both `hot` and `cold` saturation experiments were performed. In `hot` saturation experiments, studies were performed with ^3 H-clonidine ranging from 0.1 to 50 nM. In `cold` saturation experiments, studies were performed with 2 nM ^3 H-clonidine with 20 different concentrations of the unlabeled clonidine, ranging from 0.1 nM to 1 uM unlabeled clonidine. Non specific binding was defined by parallel incubations containing 10^-5 M phentolamine or naphazoline. Imidazoline binding was determined by parallel incubations in which the alpha-adrenergic sites were masked with 10^-5 M norepinephrine. During competition experiments, ligands of 20 concentrations ranged from 10^-11 to 10^-4 were used. Radioactivity was counted in a Beckman LS-3801 scintillation counter. Data were captured and analyzed with Accufit saturation and competition softwares modeled both for one-site and two-site fits (Beckman Instruments, Fullerton, Calif.) using an IBM compatible computer. All experiments were repeated at least twice.
row,Ki [µM],Compound
1,3.95,CC1CNc2c(ccc(NC3=NCCN3)c2Br)N1 (stereo not drawn) [Example 10]
2,100,Cc1c(NC2=NCCN2)ccc2c1NCCN2 [Example 8]
3,1.99,c1cc2c(cc1NC1=NCCN1)NCCN2 [Example 7]
4,0.019,Nc1cc(Cl)c(NC2=NCCN2)c(Cl)c1 [Example 3]
5,4.58,Brc1c(NC2=NCCN2)ccc2c1NCCN2 [Example 9]
6,100,Cc1c(NC2=NCCN2)ccc2c1NC(=O)CO2 [Example 15]
7,4.32,COc1c(C(C)(C)C)cc(C)c(Nc2ncc[nH]2)c1C [Example 22]
8,0.412,Cc1c(O)cccc1Nc1ncc[nH]1 [Example 20]
9,7.11,Cc1c(NC2=NCCN2)ccc2c1NCCO2 [Example 16]
10,0.019,Cc1cccc(Nc2ncc[nH]2)c1C [Example 18]
11,11.6,O=C1COc2ccc(NC3=NCCN3)cc2N1 [Example 14]

row,Compound,Ki [µM]
1,c1cc2c(cc1NC1=NCCN1)OCCO2 [Example 11],1.83
2,Cc1c(NC2=NCCN2)ccc2c1OCCO2 [Example 13],0.831
3,Cc1ccccc1NC1=NCCN1 [Example 1],0.012
4,COc1ccc(NC2=NCCN2)c(C)c1OC [Example 12],0.34
